Entries after “also recorded” stand apart in the source; their conditions may differ. Like-named read-outs stand apart in the source and are kept apart here.
Experiments:
[1] = tested on: orientation hypermotility; experiment: Sedative action in the mouse (inhibition of orientation hypermotility); format: in vivo, mouse (female NMRI); conditions: for ED50: Mus musculus, 0.5 h, female NMRI mice, oral, dose giving 50% reduction in orientation hypermotility, measured from 30 min after administration over 30 min; for Sedative action (in words): comparison of cis/trans isomers and with comparative substance
Method: The substances are administered orally to 4-8 groups of female NMRI mice, each group comprising 3 mice. The orientation hypermotility induced by a new environment was determined photoelectrically 30 minutes after administration of the substances, over a period of 30 minutes.
The ED50 %, i.e. the dose which produces a 50% reduction in orientation hypermotility compared to placebo-treated control animals, is determined.

L-5HTP = experiment: L-5-HTP antagonism (serotonin antagonism) in the rat; format: in vivo; conditions: po, read-out: Antimonaminergic action: L-5HTP antagonism, rat, ED50 %
Method: In the rat (316 mg/kg, administered intraperitoneally), L-5-[…] (L-5HTP), a prodrug for serotonin, leads to signs of agitation, such as shaking of the head, tremors and movements of the front feet. The animals are observed for 1 hour after administration of L-5HTP, and the symptoms occurring are quantified every 10 minutes with the aid of a score. The test substances are administered perorally 1 hour before L-5HTP. The ED50 % is calculated as the dose which produces on average a 50% reduction in the scores observed for a control group.

physostigmin = experiment: Anticholinergic action (protection from physostigmin lethality) in the mouse; format: in vivo, mouse (female NMRI); conditions: for ED50: Mus musculus, po, read-out: Anticholinergic action, mouse, ED50 %; for Anticholinergic action (in words): comparison of isomers and with comparative substance
Method: A lethal dose (0.825 mg/kg) of physostigmin is administered subcutaneously to groups of 10 female NMRI mice. The test substances are administered orally 30 minutes before administration of physostigmin. The ED50 % is determined as the dose of substance which protects 50% of the animals from death due to physostigmin.

apomorphine = experiment: Apomorphine antagonistic action (antidopaminergic action), climbing in mice; format: in vivo, mouse; conditions: for ED50: Mus musculus, po, apomorphine 1.21 mg/kg s.c., dose reducing climbing scores by 50% vs control, read-out: Antimonaminergic action: Apomorphine antagonism, mouse, ED50 %; for Antimonaminergic action (in words): apomorphine (mouse) and L-5HTP (rat) antagonism together, comparison of isomers and with comparative substance
Method: In mice kept in a suitable environment (e.g. a wiremesh cage), apomorphine (1.21 mg/kg, administered subcutaneously) leads to increased climbing. The animals are observed for 30 minutes after administration of apomorphine, and the climbing is quantified every 2 minutes with the aid of a score. The test substances are administered perorally 60 minutes […] administration of apomorphine. The ED50 % is calculated as the dose which reduces the scores by 50% compared with a control group.

[2] = L-5HTP 316 mg/kg i.p., substance p.o. 1 hour before, 50% reduction in scores

Row | SMILES | ED50 [1] | ED50 (L-5HTP) | ED50 (physostigmin) | ED50 (apomorphine) | ED50 (L-5HTP; [2]) | Antimonaminergic action (in words) (apomorphine) | Sedative action (in words) [1] | Anticholinergic action (in words) (physostigmin)
1 | CN1CCN(C2=Nc3c(Cl)cccc3/C(=C\C#N)c3cscc32)CC1 [Example 16, trans-6-chloro-10-cyanomethylene-4(4-methylpiperazin-1-yl)-thieno[4,3-e]benzoazepine] | ~3 mg/kg | 1 mg/kg | > 10 mg/kg |  |  |  |  | 
2 | CN1CCN(C2=Nc3ccccc3C(=CC#N)c3cscc32)CC1 (mixture of isomers) [Example 1, cis,trans-10-cyanomethylene-4-(4-methylpiperazin-1-yl)-thieno[4,3-e]benzoazepine] | 0.89 mg/kg |  | 15.8 mg/kg | 1.7 mg/kg | 0.77 mg/kg |  |  | 
3 | CN1CCN(C2=Nc3cc(Cl)ccc3Nc3ccccc32)CC1 [Clozapine, clozapine, reference compound] | 3.8 mg/kg |  |  | 11.3 mg/kg | 6.3 mg/kg |  |  | 
4 | Cc1ccc2c(c1)N=C(N1CCN(C)CC1)c1cscc1C2=CC#N (mixture of isomers) [Example 5, cis,trans-7-methyl-10-cyanomethylene-4-(4-methylpiperazin-1-yl)-thieno[4,3-e]benzoazepine] | 3.75 mg/kg |  | > 21.5 mg/kg | ~2.1 mg/kg | 1.4 mg/kg |  |  | 
5 | CCN1CCN(C2=Nc3ccccc3C(=CC#N)c3cscc32)CC1 (mixture of isomers) [Example 9, cis,trans-10-cyanomethylene-4-(4-ethylpiperazin-1-yl)-thieno[4,3-e]benzoazepine] | 0.81 mg/kg |  | > 10 mg/kg | 1 mg/kg |  |  |  | 
6 | CN1CCN(C2=Nc3ccccc3/C(=C/C#N)c3cscc32)CC1 [Example 1 (cis), cis-10-cyanomethylene-4-(4-methylpiperazin-1-yl)-thieno[4,3-e]benzoazepine] | 0.35 mg/kg |  | > 10 mg/kg | 1 mg/kg | 1 mg/kg | displayed preferentially by the cis isomer | displayed preferentially by the cis isomer | greatly reduced
7 | CN1CCN(C2=Nc3cc(Cl)ccc3C(=CC#N)c3cscc32)CC1 (mixture of isomers) [Example 3, cis,trans-7-chloro-10-cyanomethylene-4-(4-methylpiperazin-1-yl)-thieno[4,3-e]benzoazepine] | 0.89 mg/kg |  | > 21.5 mg/kg | ~2 mg/kg | 0.8 mg/kg |  |  | 
8 | CN1CCN(C2=Nc3ccccc3/C(=C\C#N)c3cscc32)CC1 [1 (trans), trans-10-cyanomethylene-4-(4-methylpiperazin-1-yl)-thieno[4,3-e]benzoazepine] | 5.1 mg/kg |  | 5.2 mg/kg | 10.9 mg/kg | 33 mg/kg | fairly weak | fairly weak | predominates; also recorded: stronger than that of the comparative substances
9 | CN1CCN(C2=Nc3cc(F)ccc3C(=CC#N)c3cscc32)CC1 (mixture of isomers) [Example 4, cis,trans-7-fluoro-10-cyanomethylene-4-(4-methylpiperazin-1-yl)-thieno[4,3-e]benzoazepine] | 3.27 mg/kg |  | ~21 mg/kg | ~2 mg/kg | 1 mg/kg |  |  | 
